# Measured values as given in US5496947A, “Quinolone carboxylic acid derivatives” (Dong Wha Pharmaceutical Industrial Co., Ltd., priority 1994, dated 1996).
# Read-outs that look alike come from different tables or passages of the source.
# Assays:
# Type in all cases: cell-based
# [1] = tested on: Citrobacter freundii ATCC 8090; assay: MIC, 2-fold dilution method in micro-well plate, C. freundii
# Description: (§1) The in vitro antibiotic activity of the present compound is measured using 2-fold dilution method with a micro-well plate and the bacteria are inoculated in about 10^5 cfu/ml after an overnight culture in a brain-heart infusion (BHI) broth at 37° C. The novel compounds of the present invention are converted to a hydrochloride salt form and diluted with a sterilized distilled water to make 10 mg/ml aqueous solution. After the mother liquor wherein the compound is diluted to the two-fold concentration has been obtained in the form of an aqueous solution, the respective 0.1 ml of diluted liquor is transferred to a well and is inoculated with 0.1 ml of the culture fluid to make about (10^5 -10^6)/2 cfu/ml.
# (§2) After cultivation at 37° C., the minimum inhibitory concentration (MIC) is measured and recorded in Table I-V.
# (§3) Table I-V show the minimum inhibitory concentrations (MIC).
# Citrobacter freundii ATCC 8090
# [2] = tested on: Escherichia coli ATCC 25922; assay: MIC, 2-fold dilution method in micro-well plate, E. coli
# Description: as §1, §2, §3
# Escherichia coli ATCC 25922
# [3] = tested on: Shigella flexneri ATCC 12022; assay: MIC, 2-fold dilution method in micro-well plate, S. flexneri; details: S. flexneri ATCC12022, 37° C., read-out: Minimum Inhibitory Concentration
# Description: as §1, §2, §3
# Shigella flexneri ATCC 12022
# [4] = tested on: Streptococcus pneumoniae ATCC 6303; assay: MIC, 2-fold dilution method in micro-well plate, S. pneumoniae; details: S. pneuinoniae ATCC6303, 37° C., read-out: Minimum Inhibitory Concentration
# Description: as §1, §2, §3
# Streptococcus pneumoniae ATCC 6303
# [5] = tested on: Pseudomonas aeruginosa ATCC 27853; assay: MIC, 2-fold dilution method in micro-well plate, P. aeruginosa; details: P. aerugirnosa ATCC27853, 37° C., read-out: Minimum Inhibitory Concentration
# Description: as §1, §2, §3
# Pseudomonas aeruginosa ATCC 27853
# [6] = tested on: Salmonella typhimurium ATCC 14028; assay: MIC, 2-fold dilution method in micro-well plate, S. typhimurium; details: Salmonella enterica, read-out: Minimum Inhibitory Concentration
# Description: as §1, §2, §3
# Salmonella typhimurium ATCC 14028
# [7] = tested on: Proteus vulgaris ATCC 13315; assay: MIC, 2-fold dilution method in micro-well plate, P. vulgaris
# Description: as §1, §2, §3
# Proteus vulgaris ATCC 13315
# [8] = tested on: Streptococcus faecalis ATCC 29212; assay: MIC, 2-fold dilution method in micro-well plate, S. faecalis ATCC 29212; details: Enterococcus faecalis; S. faecalis ATCC29212, 37° C.; read-out: Minimum Inhibitory Concentration
# Description: as §1, §2, §3
# Streptococcus faecalis ATCC 29212
# [9] = tested on: Acinetobacter calcoaceticus; assay: MIC, 2-fold dilution method in micro-well plate, A. calcoaceticus
# Description: as §1, §2
# Table I-V show the minimum inhibitory concentrations (MIC). […]
# [10] = tested on: Streptococcus pyrogens ATCC 19615; assay: MIC, 2-fold dilution method in micro-well plate, S. pyrogens; details: S. pyrogenes ATCC19615, 37° C., read-out: Minimum Inhibitory Concentration
# Description: as §1, §2, §3
# Streptococcus pyrogens ATCC 19615
# [11] = tested on: Shigella sonnei ATCC 25931; assay: MIC, 2-fold dilution method in micro-well plate, S. sonnei; details: S. sonnei ATCC25931, 37° C., read-out: Minimum Inhibitory Concentration
# Description: as §1, §2, §3
# Shigella sonnei ATCC 25931
# [12] = tested on: Haemophilus influenza ATCC 35056; assay: MIC, 2-fold dilution method in micro-well plate, H. influenzae; details: H. influenzae ATCC35056, 37° C.; read-out: Minimum Inhibitory Concentration
# Description: as §1, §2, §3
# Haemophilus influenza ATCC 35056
# [13] = tested on: Serratia marcescens ATCC 8100; assay: MIC, 2-fold dilution method in micro-well plate, S. marcescens
# Description: as §1, §2, §3
# Serratia marcescens ATCC 8100
# [14] = tested on: Klebsiella pneumoniae ATCC 13883; assay: MIC, 2-fold dilution method in micro-well plate, K. pneumoniae
# Description: as §1, §2, §3
# Klebsiella pneumoniae ATCC 13883
# [15] = tested on: Enterobacter aerogenes ATCC 13048; assay: MIC, 2-fold dilution method in micro-well plate, E. aerogenes; details: Klebsiella aerogenes
# Description: as §1, §2, §3
# Enterobacter aerogenes ATCC 13048
# Enterobacter cloacae = assay: MIC, 2-fold dilution method in micro-well plate, E. cloacae; details: read-out: Minimum Inhibitory Concentration
# Description: as §1, §2, §3
# Enterobacter cloacae ATCC 23355
# [16] = tested on: Streptococcus faecalis ATCC 19433; assay: MIC, 2-fold dilution method in micro-well plate, S. faecalis ATCC 19433; details: Enterococcus faecalis; S. faecalis ATCC19433, 37° C.; read-out: Minimum Inhibitory Concentration
# Description: as §1, §2, §3
# Streptococcus faecalis ATCC 19433
# [17] = ATCC8090, read-out: Minimum Inhibitory Concentration
# [18] = E. coli ATCC25922, 37° C., read-out: Minimum Inhibitory Concentration
# [19] = ATCC13315, read-out: Minimum Inhibitory Concentration
# [20] = A. calcoaceticus ATCC8090 (as in tables), 37° C., read-out: Minimum Inhibitory Concentration
# [21] = S. marcescens ATCC8100, 37° C., read-out: Minimum Inhibitory Concentration
# [22] = ATCC13883, read-out: Minimum Inhibitory Concentration
# [23] = ATCC13048, read-out: Minimum Inhibitory Concentration
# [24] = ATCC25922, read-out: Minimum Inhibitory Concentration
# [25] = ATCC8100, read-out: Minimum Inhibitory Concentration
# [26] = C. freundii ATCC8090, 37° C., read-out: Minimum Inhibitory Concentration
# [27] = P. vulgaris ATCC13315, 37° C., read-out: Minimum Inhibitory Concentration
# [28] = K. pneumoniae ATCC13883, 37° C., read-out: Minimum Inhibitory Concentration
# [29] = S. typhisurium ATCC14028, 37° C.
# [30] = E. aerogenes ATCC13048, 37° C., read-out: Minimum Inhibitory Concentration
# [31] = E. cloacae ATCC23355 (as in tables), 37° C.
SMILES,"MIC [1, 17]","MIC [2, 18]",MIC [3],MIC [4],MIC [5],MIC [6],"MIC [7, 19]",MIC [8],"MIC [9, 20]",MIC [10],MIC [11],MIC [12],"MIC [13, 21]","MIC [14, 22]","MIC [15, 23]",MIC (Enterobacter cloacae),MIC [16],"MIC [2, 24]","MIC [9, 17]","MIC [14, 28]",other results
"Cl.O=C(O)c1cn(-c2ccc(F)cn2)c2cc(N3CCNCC3)c(F)cc2c1=O [Example 17, 1-(5-fluoro-2-pyridyl)-6-fluoro-7-(1-piperazinyl)-1,4-dihydro-4-oxoquinoline-3-carboxylic acid hydrochloride]",1.25 µg/mL,0.313 µg/mL,0.625 µg/mL,5 µg/mL,1.25 µg/mL,1.25 µg/mL,0.625 µg/mL,2.5 µg/mL,2.5 µg/mL,5 µg/mL,0.625 µg/mL,1.25 µg/mL,2.5 µg/mL,0.625 µg/mL,1.25 µg/mL,1.25 µg/mL,5 µg/mL,–,–,–,–
"CC1CN(c2cc3c(cc2F)c(=O)c(C(=O)O)cn3-c2ccc(F)cn2)CC(C)N1.Cl (stereo not drawn) [Example 20, 1-(5-fluoro-2-pyridyl)-6-fluoro-7-(3,5-dimethyl-1-piperazinyl)-1,4-dihydro-4-oxoquinoline-3-carboxylic acid hydrochloride]",0.625 µg/mL,–,0.625 µg/mL,5 µg/mL,1.25 µg/mL,1.25 µg/mL,0.625 µg/mL,2.5 µg/mL,–,10 µg/mL,0.313 µg/mL,1.25 µg/mL,–,0.625 µg/mL,1.25 µg/mL,0.625 µg/mL,5 µg/mL,0.625 µg/mL,1.25 µg/mL,–,"MIC [13, 25]: 0.625 µg/mL"
"Cl.NC1CCN(c2cc3c(cc2F)c(=O)c(C(=O)O)cn3-c2ccc(F)cn2)C1 (stereo not drawn) [Example 21, 1-(5-fluoro-2-pyridyl)-6-fluoro-7-(3-amino-1-pyrrolidinyl)-1,4-dihydro-4-oxoquinoline-3-carboxylic acid hydrochloride]",–,0.078 µg/mL,0.078 µg/mL,2.5 µg/mL,0.313 µg/mL,0.156 µg/mL,–,1.25 µg/mL,–,2.5 µg/mL,0.02 µg/mL,0.078 µg/mL,0.078 µg/mL,–,0.156 µg/mL,0.156 µg/mL,1.25 µg/mL,–,0.156 µg/mL,0.078 µg/mL,"MIC [1, 26]: 0.078 µg/mL; MIC [7, 27]: 0.078 µg/mL"
"Cl.N[C@H]1CCN(c2cc3c(cc2F)c(=O)c(C(=O)O)cn3-c2ccc(F)cn2)C1 [Example 22, 1-(5-fluoro-2-pyridyl)-6-fluoro-7-[(3S)-3-amino-1-pyrrolidinyl]-1,4-dihydro-4-oxoquinoline-3-carboxylic acid hydrochloride]",–,0.039 µg/mL,0.156 µg/mL,1.25 µg/mL,0.156 µg/mL,–,–,1.25 µg/mL,0.313 µg/mL,2.5 µg/mL,0.039 µg/mL,0.078 µg/mL,0.078 µg/mL,–,–,–,0.625 µg/mL,–,–,0.039 µg/mL,"MIC [1, 26]: 0.039 µg/mL; MIC [6, 29]: 0.078 µg/mL; MIC [7, 27]: 0.078 µg/mL; MIC [15, 30]: 0.078 µg/mL; MIC (Enterobacter cloacae; [31]): 0.078 µg/mL"
"Cl.O=C(O)c1cn(-c2ccc(F)cn2)c2c(F)c(N3CCNCC3)c(F)cc2c1=O [Example 23, 1-(5-fluoro-2-pyridyl)-6,8-difluoro-7-(1-piperazinyl)-1,4-dihydro-4-oxoquinoline-3-carboxylic acid hydrochloride]",0.625 µg/mL,–,0.313 µg/mL,2.5 µg/mL,1.25 µg/mL,0.313 µg/mL,0.313 µg/mL,5 µg/mL,1.25 µg/mL,5 µg/mL,0.078 µg/mL,0.625 µg/mL,–,–,0.625 µg/mL,0.625 µg/mL,5 µg/mL,0.625 µg/mL,–,1.25 µg/mL,"MIC [13, 25]: 0.625 µg/mL"
"CN1CCN(c2c(F)cc3c(=O)c(C(=O)O)cn(-c4ccc(F)cn4)c3c2F)CC1.Cl [Example 24, 1-(5-fluoro-2-pyridyl)-6,8-difluoro-7-(4-methyl-1-piperazinyl)-1,4-dihydro-4-oxoquinoline-3-carboxylic acid hydrochloride]",0.625 µg/mL,–,0.625 µg/mL,5 µg/mL,0.625 µg/mL,0.313 µg/mL,0.625 µg/mL,2.5 µg/mL,–,10 µg/mL,0.156 µg/mL,0.313 µg/mL,–,0.625 µg/mL,0.625 µg/mL,0.625 µg/mL,5 µg/mL,0.625 µg/mL,0.625 µg/mL,–,"MIC [13, 25]: 0.625 µg/mL"
"CC1CN(c2c(F)cc3c(=O)c(C(=O)O)cn(-c4ccc(F)cn4)c3c2F)CCN1.Cl (stereo not drawn) [Example 25, 1-(5-fluoro-2-pyridyl)-6,8-difluoro-7-(3-methyl-1-piperazinyl)-1,4-dihydro-4-oxoquinoline-3-carboxylic acid hydrochloride]",0.625 µg/mL,–,0.156 µg/mL,5 µg/mL,0.313 µg/mL,0.625 µg/mL,0.625 µg/mL,5 µg/mL,1.25 µg/mL,10 µg/mL,0.156 µg/mL,0.625 µg/mL,1.25 µg/mL,0.625 µg/mL,0.625 µg/mL,0.625 µg/mL,5 µg/mL,0.625 µg/mL,–,–,–
"CC1CN(c2c(F)cc3c(=O)c(C(=O)O)cn(-c4ccc(F)cn4)c3c2F)CC(C)N1.Cl (stereo not drawn) [Example 26, 1-(5-fluoro-2-pyridyl)-6,8-difluoro-7-(3,5-dimethyl-1-piperazinyl)-1,4-dihydro-4-oxoquinoline-3-carboxylic acid hydrochloride]",1.25 µg/mL,0.625 µg/mL,0.313 µg/mL,5 µg/mL,0.625 µg/mL,–,–,5 µg/mL,–,10 µg/mL,0.313 µg/mL,1.25 µg/mL,–,–,–,1.25 µg/mL,5 µg/mL,–,1.25 µg/mL,0.625 µg/mL,"MIC [6, 29]: 0.625 µg/mL; MIC [7, 27]: 0.255 µg/mL; MIC [13, 25]: 1.25 µg/mL; MIC [15, 30]: 0.625 µg/mL"
"Cl.NC1CCN(c2c(F)cc3c(=O)c(C(=O)O)cn(-c4ccc(F)cn4)c3c2F)C1 (stereo not drawn) [Example 27, 1-(5-fluoro-2-pyridyl)-6,8-difluoro-7-(3-amino-1-pyrrolidinyl)-1,4-dihydro-4-oxoquinoline-3-carboxylic acid hydrochloride]",–,0.078 µg/mL,0.078 µg/mL,2.5 µg/mL,0.313 µg/mL,–,–,2.5 µg/mL,0.313 µg/mL,2.5 µg/mL,0.005 µg/mL,0.078 µg/mL,0.313 µg/mL,–,–,–,1.25 µg/mL,–,–,0.156 µg/mL,"MIC [1, 26]: 0.156 µg/mL; MIC [6, 29]: 0.078 µg/mL; MIC [7, 27]: 0.156 µg/mL; MIC [15, 30]: 0.156 µg/mL; MIC (Enterobacter cloacae; [31]): 0.313 µg/mL"
